From US8410170B2, “Use of isothiocyanates compounds in treating prostatic diseases and skin cancer” (Wuxi JC Pharmaceutical Technology Co., Ltd., priority 2005, dated 2013)
Where a name gives a salt, the structure may show the parent alone.

Legend:
[1] = test system: xenograft B16 mouse tumor; details: CTX 20 mg/kg/d i.p., 15 days
Description: The B16 mouse melanoma cells at exponential growth phase were suspended in PBS. […] Adjusted the suspension to a cell concentration of approximately 1×10^7/ml. 0.2 ml of the suspension were transplanted subcutaneously into right axillary subcutis for passaging.
Under sterile condition the xenograft B16 mouse tumor in mice was stripped from axillary subcutis. After cutting by scissors, the tumor with saline (1:3) was ground in a glass homogenizer. Monocell suspension was made with saline. […] Then adjusted the suspension to a cell density of approximately 1×10^7/ml with saline. 0.2 ml were transplanted subcutaneously into right axillary subcutis of each mouse. After transplanting, randomly divided the mouse into 5 groups, 12 each.
Tumors were taken out, sizes and weights were measured, and the percent of inhibitions were calculated.

[2] = test system: non-bacterial prostatitis; assay: Therapeutic effects on non-bacterial prostatitis (Xiaozhiling injection into prostate); assay type: in vivo, SD rats; parameters: Histopathological score of prostatitis, Overall Average X ± SD: scale not given here
Description: Fifty-five male SD rats were randomly divided into 6 groups, 9 each, except the negative control group for which 10 animals were used. All animals from group 1 to 6 were anesthetized by injection of ketamine under sterile conditions and incised around 1.5 cm with a sterilized surgery scalpel at middle of abdomen. Animals in Group 1 were injected penicillin to prevent infection, and given distill water, 10 ml/kg, once a day, 5 times a week for 5 weeks. Groups from 2 to 6 injected 25% Xiaozhiling into left and right lobes of prostate, 0.1 ml for each lobe and sew the muscle and skin with #1 silk thread. The animals were then given penicillin to prevent infectious. Group 2 was served as negative control group in which animals were treated with distill water by gavage 24 hrs after the Xiaozhiling injection, once a day, 5 times a week for 5 weeks. Group 3 was served as positive control group in which animals were treated with GENURIN by gavage 24 hrs after the Xiaozhiling injection at dose of 60 mg/kg, once a day, 5 times a week (escaping weekend) for 5 weeks. […] On the last dosing day, urine samples from different groups that covered periods of 1, 2 and 3 hrs were collected.
Twenty-four hrs after the last dose, the animals were euthanized and weighed. Volume and weight of prostate were measured. The averages of the prostate weight/volume and organ coefficient (average weight of prostate/average of body weight) were calculated, and statistical analysis performed (t test).
(§1) Prostate tissues of animals from different groups were embedded with paraffin. The tissue sections were stained with H&E for histpathological examination by an anatomical pathologist.

GSTP1 = assay: Western blot to detect GSTP1 protein in LNCaP cells; assay type: cell-based, human; details: LNCaP cells exposed 24 hrs
Description: Western blot to detect GSTP1 protein (FIG. 1): […] The cells were harvested, washed and total cellular proteins were extracted as described previously (Wang, […], et al. […] Cancer Res 61(20): 7544-51, 2001). Fifty μg cellular extracts were separated on a SDS-PAGE, electro-transferred to nitrocellulose filters, and immunoblotted initially with antibodies against GSTP1. The same membranes were stripped and re-probed with β-actin for loading control. The result was recorded by ECL films.

[3] = test system: human androgen independent prostate cancer PC-3 cells; assay: Xenograft of PC-3 in nude mice; assay type: in vivo, BALB/c nude mice; details: for Inhibition of PC-3 tumor growth: at terminal, diet containing 8 μM/g for 30 days
Source text: Immunodeficient BALB/c nude mice, male, 5 weeks old, were purchased from Animal Center, Chinese Academy of Sciences, Shanghai, China. The animals were housed in an SPF animal lab. Human androgen independent prostate cancer PC-3 cells, in the form of a pellet (approximately 1×10^6 cells per animal), were mixed with a 50% volume of Matrigel and implanted s.c. in the flank of the animal. Twenty-four hrs after the transplant, the mice were randomly divided into two groups, eight animal each. One group served as untreated control and fed with regular AIN76 diet, and another one as treatment group in which AIN76 diet containing 8 μM/g of PEITC-NAC was provided. The animals were treated for 30 days, and tumor incidence and size were measured at day 7, 10, 22. Twenty-four hrs after the last administration, animals were euthanized, and body and tumors were weighted. Western blot was used to follow the possible change of AR expression.

androgen-induced BPH = assay: Therapeutic effects on BPH: Test Two (castrated rats, testosterone propionate; weights and histopathology); assay type: in vivo, SD rats; parameters: Histopathological score of BPH, Average X ± SD: scale not given here
Description: Thirty-six male SD rats were randomly divided into 4 groups, nine each. Group 1 was served as blank control group (pseudo-surgery control group) in which animals were under the same surgical procedures except no testis was sectioned and fed normally. Groups from 2 to 4 were served as treatment groups in which all animals were anesthetized using ketamine and castrated by removing both testises under sterile conditions. After the surgery, the penicillin was injected to prevent the animals from infection. One week later, the testosterone propionate was injected subcutaneously at dose of 5 mg/kg, once a day for a month. […] Group 3 was served as positive control group in which animals were given Proscar by gavage at dose of 0.1 mg/rat/day for a month beginning on the same day that the testosterone propionate was injected.
Twenty-four hrs after the last dose, the animals were euthanized and weighed. Volume and weight of prostate were measured. The averages of prostate volume/weight and organ coefficient (average weight of prostate/average of body weight) were calculated, and statistical analysis performed (t test).
as §1

BPH = assay: Therapeutic effects on BPH: Test One (castrated rats, testosterone propionate); assay type: in vivo, SD rats; details: estradiol 0.1 mg/rat s.c., one month
Description: Sixty male SD rats were randomly divided into 6 groups, ten each. The animals were anesthetized using ketamine and castrated by removing testis under sterile conditions. After the surgery, the penicillin was injected to prevent the animals from infection. One week later, the testosterone propionate was injected subcutaneously at dose of 1 mg/rat for a month, once a day. Group 1 was served as a negative control group, and the animals of group 1 were given saline orally without any active pharmaceutical ingredient for a month beginning on the same day the testosterone propionate was injected. Group 2 was served as positive control group in which animals were given estradiol subcutaneously at a dose of 0.1 mg/rat for a month beginning on the same day the testosterone propionate was injected. Groups from 3 to 6 was served as drug treatment groups in which animals were given tested articles on the same day the testosterone propionate was injected.
Twenty-four hrs after the last dosage, the animals were euthanized and weighed. Volume and weight of prostate were measured. The averages of volume/weight and organ coefficient (average weight of prostate/average of body weight) were calculated, and statistical analysis performed (t test).

[4] = GENURIN 60 mg/kg gavage, 5 weeks
[5] = GENURIN 60 mg/kg, last dosing day
[6] = Proscar 0.5 mg/kg gavage, one month

O=P1(N(CCCl)CCCl)NCCCO1 (centres unmarked) [CTX, Cyclophosphamide, reference compound]
Average of Tumor Weight [1]: 0.76 ± 0.41 g
Changes in Body Weight [1]: 5.07 ± 2.64 g
Inhibition [1]: 66.23%

Cc1c(-c2ccccc2)oc2c(C(=O)OCCN3CCCCC3)cccc2c1=O [GENURIN, Flavoxate Hydrochloride, reference compound]
Average Volume of Prostate [2, 4]: 0.69 ± 0.10 cm^3
Average Weight of Prostate [2, 4]: 0.71 ± 0.09 g
Inhibition of Organ-coefficient [2, 4]: 24.62%
Organ Coefficient [2, 4]: 0.196 ± 0.03 %
Bleeding: no. of animals with score 0 ([2]; GENURIN 60 mg/kg, 9 animals): 6
Bleeding: no. of animals with score + ([2]; GENURIN 60 mg/kg, 9 animals): 3
Bleeding: no. of animals with score ++ ([2]; GENURIN 60 mg/kg, 9 animals): 0
Bleeding: no. of animals with score +++ ([2]; GENURIN 60 mg/kg, 9 animals): 0
Chronic Inflammatory Infiltration: no. of animals with score 0 ([2]; GENURIN 60 mg/kg, 9 animals): 5
Chronic Inflammatory Infiltration: no. of animals with score + ([2]; GENURIN 60 mg/kg, 9 animals): 4
Chronic Inflammatory Infiltration: no. of animals with score ++ ([2]; GENURIN 60 mg/kg, 9 animals): 0
Chronic Inflammatory Infiltration: no. of animals with score +++ ([2]; GENURIN 60 mg/kg, 9 animals): 0
Congestion: no. of animals with score 0 ([2]; GENURIN 60 mg/kg, 9 animals): 4
Congestion: no. of animals with score + ([2]; GENURIN 60 mg/kg, 9 animals): 5
Congestion: no. of animals with score ++ ([2]; GENURIN 60 mg/kg, 9 animals): 0
Congestion: no. of animals with score +++ ([2]; GENURIN 60 mg/kg, 9 animals): 0
Edema: no. of animals with score 0 ([2]; GENURIN 60 mg/kg, 9 animals): 6
Edema: no. of animals with score + ([2]; GENURIN 60 mg/kg, 9 animals): 2
Edema: no. of animals with score ++ ([2]; GENURIN 60 mg/kg, 9 animals): 1
Edema: no. of animals with score +++ ([2]; GENURIN 60 mg/kg, 9 animals): 0
Fibrous Exudation: no. of animals with score 0 ([2]; GENURIN 60 mg/kg, 9 animals): 8
Fibrous Exudation: no. of animals with score + ([2]; GENURIN 60 mg/kg, 9 animals): 1
Fibrous Exudation: no. of animals with score ++ ([2]; GENURIN 60 mg/kg, 9 animals): 0
Fibrous Exudation: no. of animals with score +++ ([2]; GENURIN 60 mg/kg, 9 animals): 0
Histopathological score of prostatitis, Overall Average X ± SD ([2]; GENURIN 60 mg/kg, 9 animals): 1.83 ± 0.75
Hyperblastosis: no. of animals with score 0 ([2]; GENURIN 60 mg/kg, 9 animals): 8
Hyperblastosis: no. of animals with score + ([2]; GENURIN 60 mg/kg, 9 animals): 1
Hyperblastosis: no. of animals with score ++ ([2]; GENURIN 60 mg/kg, 9 animals): 0
Hyperblastosis: no. of animals with score +++ ([2]; GENURIN 60 mg/kg, 9 animals): 0
Inflammatory Infiltration: no. of animals with score 0 ([2]; GENURIN 60 mg/kg, 9 animals): 7
Inflammatory Infiltration: no. of animals with score + ([2]; GENURIN 60 mg/kg, 9 animals): 2
Inflammatory Infiltration: no. of animals with score ++ ([2]; GENURIN 60 mg/kg, 9 animals): 0
Inflammatory Infiltration: no. of animals with score +++ ([2]; GENURIN 60 mg/kg, 9 animals): 0
urine, 1 h Period [2, 5]: 6.2 ± 1.3 mL
urine, 2 h Period [2, 5]: 7.9 ± 1.9 mL
urine, 3 h Period [2, 5]: 8.8 ± 1.2 mL

CC(=O)NC(CSC(=S)NCCc1ccccc1)C(=O)O (centres unmarked) [PEITC-NAC, N-acetylcysteine conjugate of phenethyl isothiocyanate]
expression of GSTP1 (Western blot) (GSTP1): effectively induce
Incidence ([3]; at terminal (30 days)): 87.5%
No. of Animals with Tumor ([3]; at terminal (30 days)): 7
No. of Animals without Tumor ([3]; at terminal (30 days)): 1
Inhibition of PC-3 tumor growth [3]: 53.3%
Incidence ([3]; day 7): 75%
No. of Animals without Tumor ([3]; day 7): 2
No. of Animals with Tumor ([3]; day 7 after tumor implantation, diet containing 8 μM/g, 8 animals): 6
Incidence ([3]; day 10): 75%
No. of Animals with Tumor ([3]; day 10): 6
No. of Animals without Tumor ([3]; day 10): 2
Incidence ([3]; day 22): 87.5%
No. of Animals with Tumor ([3]; day 22): 7
No. of Animals without Tumor ([3]; day 22): 1

CC(C)(C)NC(=O)[C@H]1CC[C@H]2[C@@H]3CC[C@H]4NC(=O)C=C[C@]4(C)[C@H]3CC[C@]12C [Proscar]
Average Body Weight (androgen-induced BPH; Proscar 0.5 mg/kg (0.1 mg/rat/day) gavage, one month): 340 ± 30.5 g
Average Volume of Prostate (androgen-induced BPH; [6]): 1.61 ± 0.16 cm^3
Average Weight of Prostate (androgen-induced BPH; [6]): 1.30 ± 0.12 g
Inhibition of Organ Coefficient (androgen-induced BPH; [6]): 11.63%
Organ Coefficient (androgen-induced BPH; [6]): 0.38 ± 0.05%
Acinar Density: no. of animals with score 0 (androgen-induced BPH; Proscar, 9 animals): 1
Acinar Density: no. of animals with score + (androgen-induced BPH; Proscar, 9 animals): 2
Acinar Density: no. of animals with score ++ (androgen-induced BPH; Proscar, 9 animals): 6
Acinar Density: no. of animals with score +++ (androgen-induced BPH; Proscar, 9 animals): 0
Connective tissue proliferation, or papillary hyperplasia: no. of animals with score 0 (androgen-induced BPH; Proscar, 9 animals): 8
Connective tissue proliferation, or papillary hyperplasia: no. of animals with score + (androgen-induced BPH; Proscar, 9 animals): 1
Connective tissue proliferation, or papillary hyperplasia: no. of animals with score ++ (androgen-induced BPH; Proscar, 9 animals): 0
Connective tissue proliferation, or papillary hyperplasia: no. of animals with score +++ (androgen-induced BPH; Proscar, 9 animals): 0
Enlargement of Lumen of Gland: no. of animals with score 0 (androgen-induced BPH; Proscar, 9 animals): 3
Enlargement of Lumen of Gland: no. of animals with score + (androgen-induced BPH; Proscar, 9 animals): 3
Enlargement of Lumen of Gland: no. of animals with score ++ (androgen-induced BPH; Proscar, 9 animals): 3
Enlargement of Lumen of Gland: no. of animals with score +++ (androgen-induced BPH; Proscar, 9 animals): 0
Histopathological score of BPH, Average X ± SD (androgen-induced BPH; Proscar, 9 animals): 3.33 ± 1.11
Secretions of Gland: no. of animals with score 0 (androgen-induced BPH; Proscar, 9 animals): 5
Secretions of Gland: no. of animals with score + (androgen-induced BPH; Proscar, 9 animals): 2
Secretions of Gland: no. of animals with score ++ (androgen-induced BPH; Proscar, 9 animals): 2
Secretions of Gland: no. of animals with score +++ (androgen-induced BPH; Proscar, 9 animals): 0
lumen of prostatic gland and secretary materials in the lumen, versus untreated BPH tissues (typical slide) (androgen-induced BPH; Proscar, FIG. 6.3): reduced
density of prostatic acinars, versus untreated BPH tissues (typical slide) (androgen-induced BPH; Proscar, FIG. 6.4): reduced

C[C@]12CC[C@@H]3c4ccc(O)cc4CC[C@H]3[C@@H]1CC[C@@H]2O [estradiol, reference compound]
Average Weight of Prostate (BPH): 0.73 grams
Organ Coefficient (BPH): 0.23%

N-acetylcysteine conjugate of phenethyl isothiocyanate [PEITC-NAC]
Inhibition of PC-3 tumor growth [3]: 53.3%
